For orientation: EC50 means the concentration giving half of the maximal effect. Lower therefore signals a more potent agent.

Drawing on patent publication US20060148858A1, “1, 2-Azole derivatives with hypoglycemic and hypolipidemic activity” (priority 2002, published 2006), this text covers EC50 for 23 compounds.

The target in this assay is T1, PPARδ-RXRα heterodimer (Homo sapiens, UniProt Q03181).
T1 construct: expressed in transfected cells; host or cells: COS-1
T1 sequence (Q03181 1-441): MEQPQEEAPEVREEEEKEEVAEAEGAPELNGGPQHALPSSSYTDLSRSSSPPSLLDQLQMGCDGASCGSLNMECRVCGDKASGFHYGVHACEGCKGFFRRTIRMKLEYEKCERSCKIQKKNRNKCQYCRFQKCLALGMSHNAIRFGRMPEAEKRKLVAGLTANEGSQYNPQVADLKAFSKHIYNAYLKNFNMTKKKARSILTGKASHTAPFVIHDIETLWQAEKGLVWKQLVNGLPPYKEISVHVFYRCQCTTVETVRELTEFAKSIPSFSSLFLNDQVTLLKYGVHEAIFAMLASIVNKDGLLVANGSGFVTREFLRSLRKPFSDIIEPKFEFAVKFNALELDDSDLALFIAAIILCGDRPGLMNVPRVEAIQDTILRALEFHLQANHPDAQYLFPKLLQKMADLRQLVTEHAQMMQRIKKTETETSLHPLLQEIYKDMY
T1 sequence (P19793 1-462 partner): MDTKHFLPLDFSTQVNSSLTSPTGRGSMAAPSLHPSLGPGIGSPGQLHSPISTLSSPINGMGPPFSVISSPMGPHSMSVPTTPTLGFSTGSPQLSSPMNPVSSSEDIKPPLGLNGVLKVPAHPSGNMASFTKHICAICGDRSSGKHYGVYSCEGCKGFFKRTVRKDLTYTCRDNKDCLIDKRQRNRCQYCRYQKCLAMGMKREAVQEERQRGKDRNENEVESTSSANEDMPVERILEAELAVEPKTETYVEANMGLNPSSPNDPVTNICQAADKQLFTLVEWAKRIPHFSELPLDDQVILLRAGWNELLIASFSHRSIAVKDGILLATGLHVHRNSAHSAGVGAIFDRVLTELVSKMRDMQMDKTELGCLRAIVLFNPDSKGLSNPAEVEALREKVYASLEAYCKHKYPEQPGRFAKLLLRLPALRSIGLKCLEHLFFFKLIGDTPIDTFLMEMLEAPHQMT
As to the kind of experiment: PPARδ-RXRα heterodimer ligand activity, luciferase reporter in COS-1 transformant (Test Example 4). Type of assay: cell-based. To be noted: COS-1 transformant (hPPARδ, hRXRα, reporter), 36-48 hours, concentration for 50% of the maximum fold induction. In outline:
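COS-1 cells transiently co-transfected with human PPARδ, human RXRα, PPRE-luciferase reporter and pRL-tk, then exposed to compound 36-48 h at 37 °C in DMEM with 0.1% fatty acid-free BSA. Luciferase read as fold induction over untreated; EC50 at 50% of maximal fold induction.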
For orientation: A reporter such as luciferase makes a cellular process visible.

Compound `CC(C)c1nn(-c2ccc(C(F)(F)F)cn2)cc1CCCOc1cc(CCC(=O)O)n(-c2ccccc2)n1` [Example 24, 3-[3-(3-{3-isopropyl-1-[5-(trifluoromethyl)-2-pyridyl]-1H-pyrazol-4-yl}propoxy)-1-phenyl-1H-pyrazol-5-yl]propionic acid] returned a 50% effective concentration (EC50) of 9.3 nM.
The same measure for `CCOc1nn(-c2ccc(C(F)(F)F)cn2)cc1CCCOc1cccc(CC(=O)O)c1` [Example 30, [3-(3-{3-ethoxy-1-[5-(trifluoromethyl)-2-pyridyl]-1H-pyrazol-4-yl}propoxy)phenyl]acetic acid]: 2.6 nM.
`CCOc1nn(-c2ccc(C(F)(F)F)cn2)cc1CCCOc1ccccc1CC(=O)O` [Example 31, (2-(3-{3-ethoxy-1-[5-(trifluoromethyl)-2-pyridyl]-1H-pyrazol-4-yl}propoxy)phenyl]acetic acid] registered an EC50 of 9.6 nM.
The figure for `CCOc1nn(-c2ccc(C(F)(F)F)cn2)cc1CCCOc1cc(CCC(=O)O)n(-c2ccccc2)n1` [Example 42, 3-[3-(3-{3-ethoxy-1-[5-(trifluoromethyl)-2-pyridyl]-1H-pyrazol-4-yl}propoxy)-1-phenyl-1H-pyrazol-5-yl]propionic acid] is 1.9 nM.
As to `CCCc1nn(-c2ccc(C(F)(F)F)cn2)cc1CCCOc1cc(CCC(=O)O)n(-c2ccccc2)n1` [Example 43, 3-[1-phenyl-3-(3-{3-propyl-1-[5-(trifluoromethyl)-2-pyridyl]-1H-pyrazol-4-yl}propoxy)-1H-pyrazol-5-yl]propionic acid], the response was half-maximal at 3.7 nM (EC50).
The figure for `CCCc1nn(-c2ccc(C(F)(F)F)cn2)cc1CCCCOc1cc(CCC(=O)O)n(-c2ccccc2)n1` [Example 58, 3-[1-phenyl-3-(4-{3-propyl-1-[5-(trifluoromethyl)-2-pyridinyl]-1H-pyrazol-4-yl}butoxy)-1H-pyrazol-5-yl]propanoic acid] is 1.9 nM.
In turn, `CCCc1nn(-c2ccc(C(F)(F)F)cn2)cc1CCCOc1ccc(CCC(=O)O)c(OCC)c1` [Example 98, 3-[2-ethoxy-4-(3-{3-propyl-1-[5-(trifluoromethyl)-2-pyridinyl]-1H-pyrazol-4-yl}propoxy)phenyl]propanoic acid] returned an EC50 of 1.2 nM.
The same measure for `CCOc1nn(-c2ccc(C(F)(F)F)cn2)cc1CCCCOc1cc(CCC(=O)O)n(-c2ccccc2)n1` [Example 104, 3-[3-(4-{3-ethoxy-1-[5-(trifluoromethyl)-2-pyridinyl]-1H-pyrazol-4-yl}butoxy)-1-phenyl-1H-pyrazol-5-yl]propanoic acid]: 7 nM.
The same measure for `CCOc1nn(-c2ccc(C(F)(F)F)cn2)cc1CCCOc1ccc(CCC(=O)O)c(OC(C)C)c1` [Example 116, 3-[4-(3-{3-ethoxy-1-[5-(trifluoromethyl)-2-pyridinyl]-1H-pyrazol-4-yl}propoxy)-2-isopropoxyphenyl]propanoic acid]: 0.6 nM; for `O=C(O)CCc1cc(OCCCc2cn(-c3ccc(C(F)(F)F)cn3)nc2-c2ccccc2)nn1-c1ccccc1` [Example 125, 3-[1-phenyl-3-(3-{3-phenyl-1-[5-(trifluoromethyl)-2-pyridyl]-1H-pyrazol-4-yl}propoxy)-1H-pyrazol-5-yl]propionic acid]: 1.5 nM.
The same measure for `CCOc1nn(-c2ccc(C(F)(F)F)cn2)cc1CCCCOc1ccccc1CC(=O)O` [Example 137, [2-(4-{3-ethoxy-1-[5-(trifluoromethyl)-2-pyridyl]-1H-pyrazol-4-yl}butoxy)phenyl]acetic acid]: 9.6 nM; for `COc1cccc(CC(=O)O)c1OCCCc1cn(-c2ccc(C(F)(F)F)cn2)nc1C(C)C` [Example 181, [2-(3-{3-isopropyl-1-[5-(trifluoromethyl)-2-pyridyl]-1H-pyrazol-4-yl}propoxy)-3-methoxyphenyl]acetic acid]: 84 nM; for `O=C(O)CCc1cc(OCCCc2cn(-c3ccc(C(F)(F)F)cn3)nc2C2CCCCC2)nn1-c1ccccc1` [Example 189, 3-[3-(3-{3-cyclohexyl-1-[5-(trifluoromethyl)-2-pyridyl]-1H-pyrazol-4-yl}propoxy)-1-phenyl-1H-pyrazol-5-yl]propionic acid]: 2.1 nM.
In the case of `CCOc1ccc(CC(=O)O)cc1OCCCc1cn(-c2ccc(C(F)(F)F)cn2)nc1C1CCCCC1` [Example 201, [3-(3-{3-cyclohexyl-1-[5-(trifluoromethyl)-2-pyridyl]-1H-pyrazol-4-yl}propoxy)-4-ethoxyphenyl]acetic acid], it took 1.2 nM to reach a half-maximal effect (EC50).
The figure for `CCC(CC)c1nn(-c2ccc(C(F)(F)F)cn2)cc1CCCOc1c(CC(=O)O)cccc1OC` [Example 212, [2-(3-{3-(1-ethylpropyl)-1-[5-(trifluoromethyl)-2-pyridyl]-1H-pyrazol-4-yl}propoxy)-3-methoxyphenyl]acetic acid] is 42 nM.
As to `CCC(CC)c1nn(-c2ccc(C(F)(F)F)cn2)cc1CCCOc1c(C)cccc1CC(=O)O` [Example 213, [2-(3-{3-(1-ethylpropyl)-1-[5-(trifluoromethyl)-2-pyridyl]-1H-pyrazol-4-yl}propoxy)-3-methylphenyl]acetic acid], the EC50 is 8.3 nM.
`CCC(CC)c1nn(-c2ccc(Cl)cn2)cc1CCCOc1c(CC(=O)O)cccc1OC` [Example 223, (2-{3-[1-(5-chloro-2-pyridyl)-3-(1-ethylpropyl)-1H-pyrazol-4-yl]propoxy}-3-methoxyphenyl)acetic acid] gave an EC50 of 97 nM.
The same measure for `CCc1cccc(CC(=O)O)c1OCCCc1cn(-c2ccc(C(F)(F)F)cn2)nc1C(C)C` [Example 227, [3-ethyl-2-(3-{3-isopropyl-1-[5-(trifluoromethyl)-2-pyridinyl]-1H-pyrazol-4-yl}propoxy)phenyl]acetic acid]: 54 nM; for `CCCc1nn(-c2ccc(C(F)(F)F)cn2)cc1CCCOc1c(Br)cccc1CC(=O)O` [Example 237, [3-bromo-2-(3-{3-propyl-1-[5-(trifluoromethyl)-2-pyridinyl]-1H-pyrazol-4-yl}propoxy)phenyl]acetic acid]: 6.1 nM.
The figure for `CCc1cccc(CC(=O)O)c1OCCCc1cn(-c2ccc(C(F)(F)F)nn2)nc1C(C)C` [Example 245, [3-ethyl-2-(3-{3-isopropyl-1-[6-(trifluoromethyl)pyridazin-3-yl]-1H-pyrazol-4-yl}propoxy)phenyl]acetic acid] is 130 nM; for `COc1cccc(CC(=O)O)c1OCCCc1cn(-c2ccc(C(F)(F)F)nn2)nc1C(C)C` [Example 274, [2-(3-{3-isopropyl-1-[6-(trifluoromethyl)pyridazin-3-yl]-1H-pyrazol-4-yl}propoxy)-3-methoxyphenyl]acetic acid] it is 320 nM.
The figure for `COc1ccc(CC(=O)O)cc1OCCCc1cn(-c2ccc(C(F)(F)F)cn2)nc1C1CCCCC1` [Example 304, [3-(3-{3-cyclohexyl-1-[5-(trifluoromethyl)-2-pyridinyl]-1H-pyrazol-4-yl}propoxy)-4-methoxyphenyl]acetic acid] is 5.7 nM; for `COc1cccc(CC(=O)O)c1OCCCc1cn(-c2ccc(Cl)cn2)nc1C(C)C` [Example 311, (2-{3-[1-(5-chloro-2-pyridinyl)-3-isopropyl-1H-pyrazol-4-yl]propoxy}-3-methoxyphenyl)acetic acid] it is 280 nM.
